Experimental data as given in ChEMBL document CHEMBL1133030, “Synthesis and in vitro evaluation of human FP-receptor selective prostaglandin analogues” (Bioorg Med Chem Lett, 2000).

Tests used:
[1] = target: T1, Thromboxane A2 receptor (Homo sapiens, UniProt P21731); assay: Functional activity in RAT-1cells, transiently-transfected with human TP-receptor (% of control ligand, [3H]-U-46,619<20%)
T1 sequence (P21731 whole entry): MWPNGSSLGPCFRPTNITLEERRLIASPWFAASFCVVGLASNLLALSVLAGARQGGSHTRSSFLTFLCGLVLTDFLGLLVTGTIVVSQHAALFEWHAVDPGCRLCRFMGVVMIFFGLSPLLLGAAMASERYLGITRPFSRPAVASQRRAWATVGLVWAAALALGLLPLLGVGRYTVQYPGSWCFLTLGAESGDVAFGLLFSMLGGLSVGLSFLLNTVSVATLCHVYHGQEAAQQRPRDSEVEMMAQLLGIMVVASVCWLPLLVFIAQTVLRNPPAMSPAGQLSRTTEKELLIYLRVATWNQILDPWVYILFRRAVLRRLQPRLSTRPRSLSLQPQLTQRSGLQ

[2] = target: T2, Prostaglandin E2 receptor EP3 subtype (Homo sapiens, UniProt P43115); assay: Functional activity in RAT-1cells, transiently-transfected with human Prostaglandin E receptor EP3 (% of control ligand, sulprostone<20%)
T2 sequence (P43115 whole entry): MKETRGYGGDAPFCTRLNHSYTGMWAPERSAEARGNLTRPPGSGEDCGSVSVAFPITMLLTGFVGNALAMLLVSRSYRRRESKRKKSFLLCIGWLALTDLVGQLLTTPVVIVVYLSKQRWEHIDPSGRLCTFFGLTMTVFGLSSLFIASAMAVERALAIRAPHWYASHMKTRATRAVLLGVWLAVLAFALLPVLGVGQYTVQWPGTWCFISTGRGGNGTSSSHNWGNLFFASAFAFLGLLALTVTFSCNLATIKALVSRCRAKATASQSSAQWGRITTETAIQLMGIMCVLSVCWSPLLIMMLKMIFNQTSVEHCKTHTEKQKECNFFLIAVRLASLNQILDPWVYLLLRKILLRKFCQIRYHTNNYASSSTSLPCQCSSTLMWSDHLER

[3] = target: T3, Prostaglandin E2 receptor EP1 subtype (Homo sapiens, UniProt P34995); assay: Functional activity in RAT-1cells, transiently-transfected with human Prostaglandin E receptor EP1 (% of control ligand, 17-phi-PGE2<20%)
T3 sequence (P34995 whole entry): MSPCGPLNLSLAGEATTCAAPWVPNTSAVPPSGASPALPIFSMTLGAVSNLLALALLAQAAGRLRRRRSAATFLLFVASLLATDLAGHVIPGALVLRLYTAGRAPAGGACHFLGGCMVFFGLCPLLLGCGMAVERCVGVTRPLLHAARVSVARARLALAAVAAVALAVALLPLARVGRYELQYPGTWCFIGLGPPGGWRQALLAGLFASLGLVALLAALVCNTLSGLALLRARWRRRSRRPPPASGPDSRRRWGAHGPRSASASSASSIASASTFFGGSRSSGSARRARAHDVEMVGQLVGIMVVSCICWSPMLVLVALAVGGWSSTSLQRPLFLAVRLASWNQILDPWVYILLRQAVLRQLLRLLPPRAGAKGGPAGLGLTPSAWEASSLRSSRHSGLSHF

[4] = target: T4, Prostaglandin F2-alpha receptor (Homo sapiens, UniProt P43088); assay: Functional activity in RAT-1cells, transiently-transfected with human FP-receptor (% of control ligand, fluprostenol<20%)
[5] = target: T4, Prostaglandin F2-alpha receptor; assay: Displacement of [3H]PGF2-alpha from human FP-receptor expressed in CHO-KI cells; assay type: cell-based
[6] = target: T3, Prostaglandin E2 receptor EP1 subtype; assay: Displacement of [3H]PGE-2 from Prostaglandin E receptor EP1 expressed in CHO-KI cells; assay type: cell-based
[7] = target: T1, Thromboxane A2 receptor; assay: Displacement of [3H]-U-46,619 from human TP-receptor expressed in CHO-KI cells; assay type: cell-based
[8] = target: T2, Prostaglandin E2 receptor EP3 subtype; assay: Compound was evaluated for its ability to displace [3H]-PGE-2 from human Prostaglandin E receptor EP3 isolated from CHO-KI cells; assay type: cell-based
[9] = target: T4, Prostaglandin F2-alpha receptor; assay: Displacement of [3H]PGF-2 from human FP-receptor expressed in CHO-KI cells; assay type: cell-based
[10] = target: T2, Prostaglandin E2 receptor EP3 subtype; assay: Functional activity in RAT-1cells, transiently-transfected with human Prostaglandin E receptor EP3 (% of control ligand, sulprostone<50%)
[11] = target: T4, Prostaglandin F2-alpha receptor; assay: Functional activity in RAT-1cells, transiently-transfected with human FP-receptor (% of control ligand, fluprostenol=87%)
[12] = target: T1, Thromboxane A2 receptor; assay: Functional activity in RAT-1cells, transiently-transfected with human TP-receptor (% of control ligand, [3H]-U-46,619=50%)
[13] = target: T3, Prostaglandin E2 receptor EP1 subtype; assay: Functional activity in RAT-1cells, transiently-transfected with human Prostaglandin E receptor EP1 (% of control ligand, 17-phi-PGE2<50%)
[14] = target: T2, Prostaglandin E2 receptor EP3 subtype; assay: Displacement of [3H]PGE-2 from human Prostaglandin E receptor EP3 expressed in CHO-KI cells; assay type: cell-based
[15] = target: T3, Prostaglandin E2 receptor EP1 subtype; assay: Compound was evaluated for its ability to displace [3H]PGE-2 from human Prostaglandin E receptor EP1 isolated from CHO-KI cells (% of control ligand, 17-phi-PGE2=80%); assay type: cell-based
[16] = target: T1, Thromboxane A2 receptor; assay: Functional activity in RAT-1cells, transiently-transfected with human TP-receptor (% of control ligand, [3H]-U-46,619=90%)
[17] = target: T4, Prostaglandin F2-alpha receptor; assay: Functional activity in RAT-1cells, transiently-transfected with human FP-receptor (% of control ligand, fluprostenol=100%)
[18] = target: T3, Prostaglandin E2 receptor EP1 subtype; assay: Functional activity in RAT-1cells, transiently-transfected with human Prostaglandin E receptor EP1 (% of control ligand, 17-phi-PGE2=100%)
[19] = target: T1, Thromboxane A2 receptor; assay: Functional activity in RAT-1cells, transiently-transfected with human TP-receptor (% of control ligand, [3H]-U-46,619=100%)
[20] = target: T4, Prostaglandin F2-alpha receptor; assay: Functional activity in RAT-1cells, transiently-transfected with human FP-receptor (% of control ligand, fluprostenol=50%)
[21] = target: T4, Prostaglandin F2-alpha receptor; assay: Functional activity in RAT-1cells, transiently-transfected with human FP-receptor (% of control ligand, fluprostenol=90%)
[22] = target: T3, Prostaglandin E2 receptor EP1 subtype; assay: Functional activity in RAT-1cells, transiently-transfected with human Prostaglandin E receptor EP1 (% of control ligand, 17-phi-PGE2=80%)
[23] = target: T2, Prostaglandin E2 receptor EP3 subtype; assay: Functional activity in RAT-1cells, transiently-transfected with human Prostaglandin E receptor EP3 (% of control ligand, sulprostone=130%)
[24] = target: T1, Thromboxane A2 receptor; assay: Functional activity in RAT-1cells, transiently-transfected with human TP-receptor (% of control ligand, [3H]-U-46,619=95%)
[25] = target: T4, Prostaglandin F2-alpha receptor; assay: Functional activity in RAT-1cells, transiently-transfected with human FP-receptor (% of control ligand, fluprostenol=150%)
[26] = target: T2, Prostaglandin E2 receptor EP3 subtype; assay: Functional activity in RAT-1cells, transiently-transfected with human Prostaglandin E receptor EP3(% of control ligand, sulprostone=75%)
[27] = target: T2, Prostaglandin E2 receptor EP3 subtype; assay: Functional activity in RAT-1cells, transiently-transfected with human Prostaglandin E receptor EP3 (% of control ligand, sulprostone=50%)

T4 sequence (P43088 whole entry): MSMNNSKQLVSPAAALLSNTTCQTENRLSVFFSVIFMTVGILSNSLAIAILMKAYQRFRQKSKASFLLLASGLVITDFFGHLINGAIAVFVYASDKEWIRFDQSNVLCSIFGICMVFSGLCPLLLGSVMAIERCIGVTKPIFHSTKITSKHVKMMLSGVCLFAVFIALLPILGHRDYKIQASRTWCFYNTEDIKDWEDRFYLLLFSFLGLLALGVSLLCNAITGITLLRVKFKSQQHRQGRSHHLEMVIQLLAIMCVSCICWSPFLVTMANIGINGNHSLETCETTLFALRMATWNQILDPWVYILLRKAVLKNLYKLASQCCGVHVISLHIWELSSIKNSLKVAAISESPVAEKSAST

Compound | IC50 [6] [µM] | IC50 [7] [µM] | IC50 [9] [µM] | IC50 [14] [µM] | other results
CCCCC(C)(C)[C@H](O)CC[C@@H]1[C@@H](CCCCCCC(=O)O)[C@@H](O)C[C@H]1O |  |  |  |  | EC50 [1]: > 20 µM; EC50 [2]: > 20 µM; EC50 [3]: > 20 µM; EC50 [4]: > 20 µM; IC50 [5]: > 1 µM
N#Cc1cccc(CC[C@H](O)CC[C@@H]2[C@@H](CCCCCCC(=O)O)[C@@H](O)C[C@H]2O)c1 | > 10 | > 10 | 0.21 |  | IC50 [8]: > 10 µM
O=C(O)CCC/C=C\C[C@@H]1[C@@H](/C=C/[C@@H](O)CCc2cccc(C(F)(F)F)c2)[C@H](O)C[C@@H]1O |  |  |  |  | EC50 [10]: > 20 µM; EC50 [11]: 0.064 µM; EC50 [12]: 2.1 µM; IC50 [5]: 0.01 µM; EC50 [13]: > 20 µM
O=C(O)CCCCCC[C@@H]1[C@@H](CC[C@@H](O)CCc2ccccc2C(F)(F)F)[C@H](O)C[C@@H]1O |  |  | 2.14 |  | 
O=C(O)CCCCCC[C@@H]1[C@@H](CC[C@@H](O)CCc2ccccc2F)[C@H](O)C[C@@H]1O | 3.1 | > 10 | 0.076 | > 10 | 
O=C(O)CCCCCC[C@@H]1[C@@H](CC[C@@H](O)CCc2cccc(F)c2)[C@H](O)C[C@@H]1O | 10 | > 10 | 0.042 | 3.7 | 
O=C(O)CCCCCC[C@@H]1[C@@H](CC[C@@H](O)CCc2ccc(C(F)(F)F)cc2)[C@H](O)C[C@@H]1O |  |  | 3.63 |  | 
Cc1ccc(CC[C@H](O)CC[C@@H]2[C@@H](CCCCCCC(=O)O)[C@@H](O)C[C@H]2O)cc1 |  |  | 4.4 |  | 
O=C(O)CCCCCC[C@@H]1[C@@H](CC[C@@H](O)CCc2ccccc2)[C@H](O)C[C@@H]1O | 1.1 | > 10 | 0.082 | > 10 | 
COc1cccc(CC[C@H](O)CC[C@@H]2[C@@H](CCCCCCC(=O)O)[C@@H](O)C[C@H]2O)c1 |  | > 10 | 1.62 | > 10 | IC50 [15]: > 10 µM
O=C(O)CCCCCC[C@@H]1[C@@H](CC[C@@H](O)COc2cccc(Cl)c2)[C@H](O)C[C@@H]1O |  |  |  |  | EC50 [16]: 8 µM; EC50 [17]: 0.009 µM; EC50 [10]: > 20 µM; EC50 [18]: 19 µM; IC50 [5]: 0.001 µM
CCCCC[C@H](O)CC[C@@H]1[C@@H](CCCCCCC(=O)O)[C@@H](O)C[C@H]1O |  |  |  |  | EC50 [19]: 30 µM; EC50 [10]: > 20 µM; EC50 [20]: 5 µM; IC50 [5]: 0.522 µM; EC50 [13]: > 10 µM
CCc1cccc(CC[C@H](O)CC[C@@H]2[C@@H](CCCCCCC(=O)O)[C@@H](O)C[C@H]2O)c1 | > 10 | > 10 | 0.54 | > 10 | 
O=C(O)CCCCCC[C@@H]1[C@@H](CC[C@@H](O)CCc2ccc(F)cc2)[C@H](O)C[C@@H]1O | 3.45 | > 10 | 0.21 | > 10 | 
Cc1ccccc1CC[C@H](O)CC[C@@H]1[C@@H](CCCCCCC(=O)O)[C@@H](O)C[C@H]1O | 10 | > 10 | 0.63 | > 10 | 
COc1ccccc1CC[C@H](O)CC[C@@H]1[C@@H](CCCCCCC(=O)O)[C@@H](O)C[C@H]1O |  |  | 5.89 |  | 
O=C(O)CCCCCC[C@@H]1[C@@H](CC[C@@H](O)CCc2cccc(C(F)(F)F)c2)[C@H](O)C[C@@H]1O | > 10 | > 10 | 0.0086 | > 10 | EC50 [10]: > 20 µM; EC50 [12]: > 20 µM; EC50 [18]: 30 µM; IC50 [5]: 0.0086 µM; EC50 [21]: 0.085 µM
CCCCC(C)(C)[C@H](O)/C=C/[C@@H]1[C@@H](C/C=C\CCCC(=O)O)[C@@H](O)C[C@H]1O |  |  |  |  | EC50 [22]: 0.3 µM; EC50 [23]: 2 µM; EC50 [24]: 0.024 µM; IC50 [5]: 0.016 µM; EC50 [25]: 0.09 µM
COc1ccc(CC[C@H](O)CC[C@@H]2[C@@H](CCCCCCC(=O)O)[C@@H](O)C[C@H]2O)cc1 | > 10 | > 10 | 0.29 | > 10 | 
O=C(O)CCC/C=C\C[C@@H]1[C@@H](/C=C/[C@@H](O)COc2cccc(Cl)c2)[C@H](O)C[C@@H]1O [CLOPROSTENOL] |  |  |  |  | EC50 [19]: 2.4 µM; EC50 [22]: 0.76 µM; EC50 [26]: 5 µM
CCCCC[C@H](O)/C=C/[C@@H]1[C@@H](C/C=C\CCCC(=O)O)[C@@H](O)C[C@H]1O [DINOPROST] |  |  |  |  | EC50 [22]: 0.6 µM; EC50 [27]: 2.3 µM; EC50 [24]: 1.4 µM
